{"source": "patent US5064812A", "about": "“Metal complexes of N-acetyl-glucosaminyl-N-acetyl-muramoyl-L-alanyl-D-isoglutaminyl-(L)-mes o-diamino-pimelyl-(D-amide)-(L)-D-alanyl-D-alanine and their use in pharmaceuticals” (Sour Pliva, priority 1986, dated 1991)", "origin": "cited, not measured here", "key": {"[1]": {"settings": "prior art literature"}, "[2]": {"settings": "prior art literature", "remark": "listed apart in the source"}}}
{"substance": "N-acetyl-glucosaminyl-N-acetyl-muramoyl-L-alanyl-D-isoglutaminyl-(L)-meso- diamino-pimelyl-(D-amide)-(L)-D-alanyl-D-alanine [PMG]", "values": [{"measurement": "antimetastatic activity", "setting": "[1]", "value": "antimetastatic activity"}, {"measurement": "immunostimulating activity", "setting": "[2]", "value": "significant immunostimulating"}]}
